Assay results from US11279735B2, “Cyclic peptide antibiotics” (priority 2017, dated 2022).
In brackets after ≈: the same amount, converted by molar mass. Several values for one entry are separate records, joined by “and”; a condition that tells them apart may be missing. Equal values may be shown once. Read-outs that look alike come from different tables or passages of the source.

System: Escherichia coli (E. coli) strain CFT073 ATCC 700928
Assay type: cell-based
Experimental: In vitro antimicrobial activity of each compound was determined by measuring minimal inhibitor concentrations (MICs) using the broth micro-dilution technique as approved by the Clinical and Laboratory Standards Institute (CLSI) (Methods for Dilution Antimicrobial Susceptibility Tests for Bacteria that Grow Aerobically; Approved Standard—Eighth Edition. CLSI document M07-A8. Wayne, Pa.: Clinical and Laboratroy Standards; 2009). Antibacterial activity was measure against Escherichia coli (E. coli) strain CFT073 ATCC 700928, which is a clinically relevant Gram-negative strain. Cells were inoculated onto plates of Mueller Hinton Agar and grown at 37° C. for 16-18 hours. Inocula suspensions were prepared by scraping cells into 1 mL of testing media (Mueller Hinton II cation adjusted Broth supplemented with 0.002% v/v Tween-80) and diluting to a final OD600 nm of 0.01.
Test compounds were prepared in DMSO at a concentration of 100 uM The compounds were tested under several different dilution formats and the data are reported in Tables 6, 7 and 8. In protocol 1, the compound stocks were diluted into testing media at a concentration of 64 μg/ml and serial 2-fold dilutions were made in the same media, in 96-well U bottom microtiter dishes, for a total of 10 compound concentrations. In protocol 2, the compound stocks were diluted into testing media at a concentration of 4 μg/mL and serial 2-fold dilutions were made in the same media, in 96-well U bottom microtiter dishes, for a total of 10 compound concentrations. In protocol 3, compound stocks were diluted into testing media at a concentration of 0.5 μg/mL, with serial 2-fold dilutions conducted as described above. In protocol 4, compound stocks were diluted into testing media at a concentration of 0.13 μg/mL, with serial 2-fold dilutions conducted as described above. Inocula suspensions were added to the 2-fold serial dilutions of test compounds to a final density of OD OD600 nm of 0.0005 and incubated at 35° C. for 22 hours.

MIC (ATCC 700928, 22 h) [µM]	SMILES	MIC (E. coli CFT073 ATCC 700928, Mueller Hinton II cation adjusted Broth with 0.002% v/v Tween-80, 35° C. for 22 hours, lowest concentration that completely prevented bacterial growth)
25 (≈ 18.8 µg/mL)	CCCCCCCCCC[C@H]1OC(=O)CNC(=O)[C@H]([C@H](C)O)NC(=O)[C@H](CN)NC(=O)[C@H]([C@H](C)CC)NC(=O)C(CCC(F)(F)F)N(C)C(=O)[C@@H]1C (single isomer, unassigned) [Example 17, 9-(aminomethyl)-19-decyl-6-(1-hydroxyethyl)-16,18-dimethyl-12-sec-butyl-15-(3,3,3-trifluoropropyl)-1-oxa-4,7,10,13,16-pentazacyclononadecane-2,5,8,11,14,17-hexone]	
12 (≈ 8.6 µg/mL)	CCCCCC[C@H]1OC(=O)CNC(=O)[C@H]([C@H](C)O)NC(=O)[C@H](CN)NC(=O)[C@H](C2CCC(F)(F)CC2)NC(=O)[C@H](CC(C)C)N(C)C(=O)[C@@H]1C (single isomer, unassigned) [Example 52]	
25 (≈ 19.3 µg/mL)	CCCCCCCCCC[C@H]1OC(=O)CNC(=O)[C@H]([C@H](C)O)NC(=O)[C@H](CN)NC(=O)[C@H](C2CCC(F)(F)CC2)NC(=O)[C@H](CC(C)C)N(C)C(=O)[C@@H]1C (single isomer, unassigned) [Example 53]	
8.8 (≈ 5.97 µg/mL)	CCCCCC[C@H]1OC(=O)CNC(=O)[C@H]([C@H](C)O)NC(=O)[C@H](CN)NC(=O)C(C2CC3CCC2C3)NC(=O)[C@H](CCC)N(C)C(=O)[C@@H]1C (single isomer, unassigned) [Example 69]	
1.1 (≈ 0.88 µg/mL)	CCC[C@H]1C(=O)N[C@@H](C2CCCCCC2)C(=O)N[C@@H](CN)C(=O)N[C@@H](COC2CC3(CC(N)C3)C2)C(=O)N[C@H](C)CO[C@H](CC2CC3(CCC3)C2)[C@@H](C)C(=O)N1C (single isomer, unassigned; stereoisomer 1) [Example 166]	
0.78 (≈ 0.624 µg/mL)	CCC[C@H]1C(=O)N[C@@H](C2CCCCCC2)C(=O)N[C@@H](CN)C(=O)N[C@@H](COC2CC3(CC(N)C3)C2)C(=O)N[C@H](C)CO[C@H](CC2CC3(CCC3)C2)[C@@H](C)C(=O)N1C (single isomer, unassigned; stereoisomer 2) [Example 170]	
18 (≈ 14 µg/mL)	CCCCCC[C@@H]1OC(=O)CNC(=O)[C@H](CNC(=O)C2CCNCC2)NC(=O)[C@H](CN)NC(=O)[C@H](C2CCCCC2)NC(=O)[C@H](CC(C)C)N(C)C(=O)[C@@H]1C (stereo in doubt) [Example 155]	
71 (≈ 55 µg/mL)	CCCCCCC1OC(=O)CNC(=O)[C@H](CNC(=O)Cn2ccnc2)NC(=O)[C@H](CN)NC(=O)[C@H](C2CCCCC2)NC(=O)[C@H](CC(C)C)N(C)C(=O)[C@@H]1C (stereo in doubt) [Example 160, N-[[(6S,9S,12S,15S,18R,19R)-9-(Aminomethyl)-12-cyclohexyl-19-hexyl-15-isobutyl-16,18-dimethyl-2,5,8,11,14,17-hexaoxo-1-oxa-4,7,10,13,16-pentazacyclononadec-6-yl]methyl]-2-imidazol-1-yl-acetamide]	
4.4 (≈ 3.47 µg/mL)	CCCCCCC1OC(=O)CNC(=O)[C@H](CNC(=O)C2CC3(CNC3)C2)NC(=O)[C@H](CN)NC(=O)[C@H](C2CCCCC2)NC(=O)[C@H](CC(C)C)N(C)C(=O)[C@@H]1C (stereo in doubt) [Example 165, N-[[(6S,9S,12S,15S,18R,19R)-9-(Aminomethyl)-12-cyclohexyl-19-hexyl-15-isobutyl-16,18-dimethyl-2,5,8,11,14,17-hexaoxo-1-oxa-4,7,10,13,16-pentazacyclononadec-6-yl]methyl]-2-azaspiro[3.3]heptane-6-carboxamide]	
25 (≈ 16 µg/mL)	CCCCCC[C@H]1OC(=O)CNC(=O)[C@H](CO)NC(=O)[C@H](CN)NC(=O)[C@H]([C@H](C)CC)NC(=O)[C@H](CC(C)C)N(C)C(=O)[C@@H]1C [Example 11, (6S,9S,12S,15S,18R,19R)-9-(aminomethyl)-19-hexyl-6-(hydroxymethyl)-15-isobutyl-16,18-dimethyl-12-[(1R)-1-methylpropyl]-1-oxa-4,7,10,13,16-pentazacyclononadecane-2,5,8,11,14,17-hexone]	
4.7 (≈ 3.28 µg/mL)	CCCCCCCCCC[C@H]1OC(=O)CNC(=O)[C@H](CO)NC(=O)[C@H](CN)NC(=O)[C@H]([C@H](C)CC)NC(=O)[C@H](CC(C)C)N(C)C(=O)[C@@H]1C [Example 12, (6S,9S,12S,15S,18R,19R)-9-(aminomethyl)-19-decyl-6-(hydroxymethyl)-15-isobutyl-16,18-dimethyl-12-[(1R)-1-methylpropyl]-1-oxa-4,7,10,13,16-pentazacyclononadecane-2,5,8,11,14,17-hexone]	

Further lines, the molecule ahead of its results:

SMILES	MIC (ATCC 700928, 22 h) [µM]	MIC (E. coli CFT073 ATCC 700928, Mueller Hinton II cation adjusted Broth with 0.002% v/v Tween-80, 35° C. for 22 hours, lowest concentration that completely prevented bacterial growth)
CCCCCCCCCC[C@H]1OC(=O)CNC(=O)[C@H]([C@H](C)O)NC(=O)[C@H](CN)NC(=O)[C@H]([C@H](C)CC)NC(=O)[C@H](CC(C)C)N(C)C(=O)[C@@H]1C [Example 1, (6S,9S,12S,15S,18R,19R)-9-(aminomethyl)-12-((R)-sec-butyl)-19-decyl-6-((S)-1-hydroxyethyl)-15-isobutyl-16,18-dimethyl-1-oxa-4,7,10,13,16-pentaazacyclononadecane-2,5,8,11,14,17-hexaone]	3.1 (≈ 2.2 µg/mL)	
CCCCCCCCCC[C@H]1OC(=O)CNC(=O)[C@H]([C@H](C)O)NC(=O)[C@H](CN)NC(=O)[C@H]([C@H](C)CC)NC(=O)[C@H](CC2CC2)N(C)C(=O)[C@@H]1C [Example 2, (6S,9S,12S,15S,18R,19R)-9-(aminomethyl)-12-((R)-sec-butyl)-15-(cyclopropylmethyl)-19-decyl-6-((S)-1-hydroxyethyl)-16,18-dimethyl-1-oxa-4,7,10,13,16-pentaazacyclononadecane-2,5,8,11,14,17-hexaone]	3.1 (≈ 2.2 µg/mL)	
CCCCCCCCCC[C@H]1OC(=O)[C@H](C)NC(=O)[C@H]([C@H](C)O)NC(=O)[C@H](CN)NC(=O)[C@H]([C@H](C)CC)NC(=O)[C@H](CC(C)C)N(C)C(=O)[C@@H]1C [Example 3, (3S,6S,9S,12S,15S,18R,19R)-9-(aminomethyl)-12-((R)-sec-butyl)-19-decyl-6-((S)-1-hydroxyethyl)-15-isobutyl-3,16,18-trimethyl-1-oxa-4,7,10,13,16-pentaazacyclononadecane-2,5,8,11,14,17-hexaone]	3.1 (≈ 2.25 µg/mL)	
CCCCCCCCCC[C@H]1OC(=O)[C@@H](C)NC(=O)[C@H]([C@H](C)O)NC(=O)[C@H](CO)NC(=O)[C@H]([C@@H](C)CC)NC(=O)[C@H](CC(C)C)N(C)C(=O)[C@@H]1C [Example 4, (3R,6S,9S,12S,15S,18R,19R)-12-((S)-sec-butyl)-19-decyl-6-((S)-1-hydroxyethyl)-9-(hydroxymethyl)-15-isobutyl-3,16,18-trimethyl-1-oxa-4,7,10,13,16-pentaazacyclononadecane-2,5,8,11,14,17-hexaone]	13 (≈ 9.44 µg/mL)	
CCCCCCCCCC[C@H]1OC(=O)CNC(=O)[C@H](CO)NC(=O)[C@H](CO)NC(=O)[C@H]([C@H](C)CC)NC(=O)[C@H](CC(C)C)N(C)C(=O)[C@@H]1C [Example 5, (6S,9S,12S,15S,18R,19R)-12-((R)-sec-butyl)-19-decyl-6,9-bis(hydroxymethyl)-15-isobutyl-16,18-dimethyl-1-oxa-4,7,10,13,16-pentaazacyclononadecane-2,5,8,11,14,17-hexaone]		4.7 µM and 3.1 µM
CCCCCCCCCC[C@H]1OC(=O)CNC(=O)[C@H](CO)NC(=O)[C@H](CO)NC(=O)[C@H](C2CCCCC2)NC(=O)[C@H](CC(C)C)N(C)C(=O)[C@@H]1C [Example 7, (6S,9S,12S,15S,18R,19R)-12-cyclohexyl-19-decyl-6,9-bis(hydroxymethyl)-15-isobutyl-16,18 dimethyl-1-oxa-4,7,10,13,16-pentazacyclononadecane-2,5,8,11,14,17-hexone]	3.1 (≈ 2.24 µg/mL)	
CCCCCCC[C@H]1OC(=O)CNC(=O)[C@H]([C@H](C)O)NC(=O)[C@H](CO)NC(=O)[C@H]([C@H](C)CC)NC(=O)[C@H](CC(C)C)N(C)C(=O)[C@@H]1CC [Example 8, (6S,9S,12S,15S,18R,19R)-12-((R)-sec-Butyl)-18-ethyl-9-heptyl-6-((S)-1-hydroxyethyl)-9-(hydroxymethyl)-15-isobutyl-16-methyl-1-oxa-4,7,10,13,16-pentaazacyclononadecane-2,5,8,11,14,17-hexaone]	25 (≈ 17.1 µg/mL)	
CCCCCC[C@H]1OC(=O)CNC(=O)[C@H]([C@H](C)O)NC(=O)[C@H](CO)NC(=O)[C@H]([C@H](C)CC)NC(=O)[C@H](CC(C)C)N(C)C(=O)[C@@H]1CCCc1ccc(C)cc1 [Example 9, (6S,9S,12S,15S,18R,19R)-12-((R)-sec-butyl)-19-hexyl-6-((S)-1-hydroxyethyl)-9-(hydroxymethyl)-15-isobutyl-16-methyl-18-(3-(p-tolyl)propyl)-1-oxa-4,7,10,13,16-pentaazacyclononadecane-2,5,8,11,14,17-hexaone]	6.3 (≈ 4.88 µg/mL)	
CCCCCCCCCC[C@H]1OC(=O)CNC(=O)[C@H](CCO)NC(=O)[C@H](CN)NC(=O)[C@H]([C@H](C)CC)NC(=O)[C@H](CC(C)C)N(C)C(=O)[C@@H]1C [Example 10, (6S,9S,12S,15S,18R,19R)-9-(aminomethyl)-19-decyl-6-(2-hydroxyethyl)-15-isobutyl-16,18-dimethyl-12-[(1R)-1-methylpropyl]-1-oxa-4,7,10,13,16-pentazacyclononadecane-2,5,8,11,14,17-hexone]	6.3 (≈ 4.48 µg/mL)	
